# Paper PMC3124361 (Journal of medicinal chemistry, 2011)
# Values joined by “and” are separate entries in the source; they are usually repeats but may differ in a detail not shown here. Identical values can stand only once. Like-named read-outs stand apart in the source and are kept apart here.
# What was measured:
# [1] = Mouse systemic exposure after single oral dose; type: in vivo; conditions: single oral dose 20 mg/kg, plasma
# [2] = In vitro metabolism in human liver microsomes; type: in vitro ADME; conditions: for microsomal CLint at 1 μM: microsomes, pH 7.4; for Eh Human: predicted hepatic extraction ratio
# [3] = Non-equilibrium solubility by nephelometry, pH 6.5; type: physicochemical; conditions: for solubility: phosphate buffer
# PfDHODH = biological target: T1, PfDHODH (Plasmodium falciparum, UniProt Q08210); assay: PfDHODH DCIP dye-based enzyme assay; type: biochemical; conditions: for IC50: IC50 PfDHODH
# T1 sequence (Q08210 158-569 limits assumed): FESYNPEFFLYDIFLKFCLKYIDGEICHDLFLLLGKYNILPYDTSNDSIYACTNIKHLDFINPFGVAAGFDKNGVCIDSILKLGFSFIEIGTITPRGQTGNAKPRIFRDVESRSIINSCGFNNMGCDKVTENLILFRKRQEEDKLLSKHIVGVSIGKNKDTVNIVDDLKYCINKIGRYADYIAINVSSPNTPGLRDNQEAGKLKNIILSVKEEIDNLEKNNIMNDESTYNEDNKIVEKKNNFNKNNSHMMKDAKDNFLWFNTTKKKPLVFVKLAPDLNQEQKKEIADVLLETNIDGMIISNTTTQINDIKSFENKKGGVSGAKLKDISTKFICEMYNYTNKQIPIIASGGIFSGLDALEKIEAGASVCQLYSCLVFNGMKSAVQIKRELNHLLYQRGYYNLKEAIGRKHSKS
# human albumin = human albumin (Homo sapiens, UniProt P02768); assay: Protein binding estimated on human albumin column; type: in vitro ADME; conditions: human albumin chromatographic method
# [4] = In vitro metabolism in mouse liver microsomes; type: in vitro ADME; conditions: for microsomal CLint at 1 μM: microsomes, pH 7.4; for Eh Mouse: predicted hepatic extraction ratio
# [5] = ref [13], [15], cited from earlier work
# hDHODH = hDHODH (Homo sapiens, UniProt Q02127); conditions: read-out: IC50 hDHODH; reported previously; ref [13], [15]; cited from earlier work
# [6] = ref [13], [15], cited from earlier work; for Eh Human: predicted hepatic extraction ratio
# P. falciparum 3D7 cells [7] = conditions: cited from earlier work
# rat plasma proteins = assay: Protein binding in rat plasma by ultracentrifugation; type: in vitro ADME; conditions: 37°C
# [8] = Rat pharmacokinetics after IV and oral administration; type: in vivo; conditions: for adverse reactions following IV or oral administration: either dose route; for clearance: male, Sprague Dawley, in vivo, iv
# [9] = system: P. berghei NK65 ANKA strain; assay: Peter's test, P. berghei efficacy in mice; type: in vivo, Plasmodium berghei; conditions: for ED50: Plasmodium berghei, in Mus musculus, po, read-out: ED50 95% confidence interval; for adverse reactions attributed to drug: any of the dose levels, efficacy study in mice
# [10] = system: P. berghei NK65 ANKA strain; conditions: cited from earlier work
# P. falciparum 3D7 cells [11] = assay: P. falciparum whole cell assay; type: cell-based, Plasmodium falciparum
# human albumin, sequence (P02768 25-609): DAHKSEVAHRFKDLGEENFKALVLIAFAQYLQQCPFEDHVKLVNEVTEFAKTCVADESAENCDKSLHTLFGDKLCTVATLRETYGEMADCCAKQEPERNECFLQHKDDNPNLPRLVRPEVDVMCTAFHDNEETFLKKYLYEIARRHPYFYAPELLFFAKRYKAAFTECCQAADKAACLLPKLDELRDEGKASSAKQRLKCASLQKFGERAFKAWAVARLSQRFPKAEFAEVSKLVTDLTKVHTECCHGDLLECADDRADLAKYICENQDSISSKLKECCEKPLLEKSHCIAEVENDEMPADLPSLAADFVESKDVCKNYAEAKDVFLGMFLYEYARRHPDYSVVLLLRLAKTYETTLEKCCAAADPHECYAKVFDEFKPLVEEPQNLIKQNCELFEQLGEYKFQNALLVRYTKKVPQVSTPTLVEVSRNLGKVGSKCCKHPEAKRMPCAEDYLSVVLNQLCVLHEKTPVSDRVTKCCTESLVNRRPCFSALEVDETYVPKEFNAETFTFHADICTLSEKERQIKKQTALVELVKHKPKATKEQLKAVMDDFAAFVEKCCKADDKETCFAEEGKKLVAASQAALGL
# hDHODH, sequence (Q02127 31-395 limits assumed): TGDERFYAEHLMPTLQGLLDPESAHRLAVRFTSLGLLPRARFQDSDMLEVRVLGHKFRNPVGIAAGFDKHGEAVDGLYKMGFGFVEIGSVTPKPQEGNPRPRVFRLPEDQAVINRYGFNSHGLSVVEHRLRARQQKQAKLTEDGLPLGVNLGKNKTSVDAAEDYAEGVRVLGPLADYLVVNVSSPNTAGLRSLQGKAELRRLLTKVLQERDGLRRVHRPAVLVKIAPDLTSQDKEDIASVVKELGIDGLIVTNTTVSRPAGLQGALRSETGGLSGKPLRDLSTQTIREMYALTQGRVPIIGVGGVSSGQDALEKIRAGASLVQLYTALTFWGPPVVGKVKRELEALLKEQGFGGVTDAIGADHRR
SMILES,Time above 1 μM [1] [h],microsomal CLint at 1 μM [2] [µL/min/mg],solubility [3] [µM],IC50 (PfDHODH; stated in text),Human Plasma Binding (human albumin) [%],microsomal CLint at 1 μM [4] [µL/min/mg],Eh Human [2],aqueous solubility at pH 6.5 (in words) [3],Eh Mouse [4],further results
"Cc1cc(Nc2ccc3sccc3c2)n2ncnc2n1 [Compound 36, N-(Benzo[b]thiophen-5yl)-5-methyl-[1,2,4]triazolo[1,5-a]pyrimidin-7-amine]",<1,> 30,22 to 44,< 100 nM,89.8,> 30,,,,
"Cc1cc(Nc2ccc3ccccc3c2)n2ncnc2n1 [Compound 1, (5-methyl-[1,2,4]triazolo[1,5-a]pyrimidin-7-yl)-naphthalen-2-yl-amine]",,,45 to 90,,93.8,,,,,"CLint Mouse ([5]; mouse liver microsomes, reported previously): 229 μL/min/mg protein; Eh Mouse ([5]; predicted hepatic extraction ratio, mouse): 0.91; IC50 (hDHODH): > 200000 nM; Eh Human [6]: 0.84; EC50 (P. falciparum 3D7 cells [7]; read-out: EC50 Pf 3D7 cells, serum media, reported previously, ref [13], [15]): 76 nM; IC50 (P. falciparum 3D7 cells [7]; read-out: IC50 against the parasite, initial lead, ref [15]): 50 to 100 nM"
"Cc1cc(Nc2cc(F)c(C(F)(F)F)c(F)c2)n2ncnc2n1 [Compound 32, N-(3,5-difluoro-4-(trifluoromethyl)phenyl)-5-methyl-[1,2,4]triazolo[1,5-a]pyrimidin-7-amine]",,< 6,9 to 18,,96.6,,<0.2/<0.2,poorly soluble,<0.2/<0.2,"Time above 1 μM ([1]; 20 mg/kg): 19 h; binding to rat plasma proteins (rat plasma proteins): 97.3%; IC50 (PfDHODH): < 300 nM; adverse reactions following IV or oral administration [8]: No adverse reactions; clearance ([8]; 0.9 mg/kg): 2.3 mL/min/kg; clearance ([8]; 2.9 mg/kg): 1.5 mL/min/kg; parasite clearance (in words) ([9]; 50 mg/kg BID): parasite free on day 5; mice remaining parasite free through day 7 ([9]; 100 mg/kg BID, parasites reemerged on day 9): 4/5; parasite clearance (in words) ([9]; 100 mg/kg QD): parasite free on day 5; ED50 [9]: 7.6 to 13 mg/kg; adverse reactions attributed to drug [9]: No adverse reactions"
"CCN(CC)CCCC(C)Nc1ccnc2cc(Cl)ccc12 (stereo not drawn) [chloroquine, reference compound]",,,,,,,,,,"ED50 in this model ([10]; previous reports, ref [20]): ~2 mg/kg"
"Cc1cc(Nc2ccc(C(C)(C)C)c(F)c2)n2ncnc2n1 [Compound 29, N-(4-tert-Butyl-3-fluorophenyl)-5-methyl-[1,2,4]triazolo[1,5-a]pyrimidin-7-amine]",<1,> 30,,< 100 nM and ~30 nM,96.4,> 30,,poorly soluble,,fold decrease in PfDHODH IC50 vs 15 (PfDHODH; comparator 15): 2 fold
"Cc1cc(Nc2ccc(C(F)(F)F)cc2)n2ncnc2n1 [Compound 2, (5-methyl-[1,2,4]triazolo[1,5-a]pyrimidin-7-yl)-(4-trifluoromethyl-phenyl)-amine]",,,21 to 43,,86.9,,,,,"CLint Human ([6]; human liver microsomes, reported previously): 8/ND ^a μL/min/mg protein; Eh Human [6]: 0.29/ND ^a; suppression of parasitemia ([10]; 50 mg/kg BID, 24 h after the last dose, ref [15]): 90%"
"Cc1cc(Nc2ccc(C(C)(C)C)cc2)n2ncnc2n1 [Compound 15, N-(4-tert-Butylphenyl)-5-methyl-[1,2,4]triazolo[1,5-a]pyrimidin-7-amine]",,> 30,11 to 22,< 100 nM,93.2,> 30,,poorly soluble,,
"Cc1cc(Nc2ccc(C3CC3)cc2)n2ncnc2n1 [Compound 16, N-(4-Cyclopropylphenyl)-5-methyl-[1,2,4]triazolo[1,5-a]pyrimidin-7-amine]",,,,,86.8,,0.75,highly soluble,0.93,
"Cc1cc(Nc2ccc(C(C)C)cc2)n2ncnc2n1 [Compound 14, N-(4-Isopropylphenyl)-5-methyl-[1,2,4]triazolo[1,5-a]pyrimidin-7-amine]",<1,,47 to 94,,91.3,,0.64,,0.91,
"Cc1cc(Nc2ccc(S(F)(F)(F)(F)F)cc2)n2ncnc2n1 [Compound 21, N-(4-Pentafluorosulfenylphenyl)-5-methyl-[1,2,4]triazolo[1,5-a]pyrimidin-7-amine]",,< 6,71 to 142,,95.4,,<0.2/<0.2,,<0.2/<0.2,fold EC50 above the levels for the comparator anti-malarial drugs (P. falciparum 3D7 cells [11]): 10-200 fold; Time above 1 μM ([1]; 20 mg/kg): 18 h; binding to rat plasma proteins (rat plasma proteins): 95.2%; IC50 (PfDHODH): < 300 nM; fold better activity (lower IC50) against PfDHODH than 2 (PfDHODH; comparator 2): 2-3 fold; adverse reactions following IV or oral administration [8]: No adverse reactions; clearance ([8]; 5.1 mg/kg): 1.2 mL/min/kg; parasite clearance (in words) ([9]; 50 mg/kg BID): none of the mice were parasite free on any day; parasite clearance (in words) ([9]; 100 mg/kg QD): none of the mice were parasite free on any day; ED50 [9]: 10 to 29 mg/kg; adverse reactions attributed to drug [9]: No adverse reactions
"Cc1cc(Nc2ccc3c(c2)CCC3)n2ncnc2n1 [Compound 34, N-(2,3-dihydro1H-inden-5-yl)-5-methyl-[1,2,4]triazolo[1,5-a]pyrimidin-7-amine]",,,47 to 94,,92.5,,0.81,,0.94,
"Cc1cc(NC2Cc3ccccc3C2)n2ncnc2n1 [Compound 45, N-(2,3-Dihydro-1H-inden-2-yl)-5-methyl-[1,2,4]triazolo[1,5-a]pyrimidin-7-amine]",<1,< 10,188 to 376,,76.1,> 25,< 0.2,highly soluble,0.59,
"Cc1cc(Nc2ccc3c(c2)CCCC3)n2ncnc2n1 [Compound 33, 5-methyl-N-(5,6,7,8-tetrahydronaphthalen-2yl)-[1,2,4]triazolo[1,5-a]pyrimidin-7-amine]",,> 30,89 to 179,< 100 nM and ~30 nM,95.5,> 30,,,,IC50 (PfDHODH): 35 nM
